In patent US20130157953A1, “TREATMENT OF CARDIAC CONDITIONS” (Zealand Pharma A/S, priority 2010, published 2013):
Numbered stars: 1 amine (or outer) side, 2 acyl side, 3 side chain; on linkers, the order of the positions; unused ones are H or OH. Bridge positions count the residues as written; N and C are the ends. Square brackets hold non-standard residues; d marks the D form. Side chains are listed from the residue outwards. Peptide text beside a SMILES is read from it. * marks the point of attachment. γGlu = O=C(O)[C@H](CCC(=O)[*:2])N[*:1]; Palmitoyl = CCCCCCCCCCCCCCCC(=O)*; Aib = CC(C)(N)C(=O)O

Legend:
human GLP-1R = target: T1, human GLP-1R (Homo sapiens, UniProt P43220); experiment: cAMP formation in HEK293 cells expressing human GLP-1R; format: cell-based; settings: 15 min at 37° C.
T1 construct: expressed in transfected cells; host or cells: HEK293
Text: (§1) Similarly, activation of the GLP-1 receptor by a GLP-1 agonist will stimulate cellular cAMP formation. Thus, production of cAMP in suitable cells expressing one of these two receptors can be used to monitor the relevant receptor activity.
(§2) The skilled person will be aware of suitable assay formats, and examples are provided below. […] (Where sequences of precursor proteins are referred to, it should of course be understood that assays may make use of the mature protein, lacking the signal sequence).
(§3) On the day of analysis, growth medium was removed and the cells washed once with 200 μl Tyrode buffer. Cells were incubated in […] containing increasing concentrations of test peptides, 100 μM IBMX, and 6 mM glucose for 15 min at 37° C. The reaction was stopped by addition of 25 μl 0.5 M HCl and incubated on ice for 60 min. The cAMP content was estimated using the FlashPlate® cAMP kit from Perkin-Elmer. EC50 values were estimated by computer aided curve fitting.

human glucagon receptor = target: T2, human glucagon receptor (Homo sapiens, UniProt P47871); experiment: cAMP formation in HEK293 cells expressing the human glucagon receptor; format: cell-based; settings: 15 min at 37° C., read-out: EC50 (nM) GuR
T2 construct: expressed in transfected cells; host or cells: HEK293
Text: as §1, §2, §3

T2 sequence (P47871 26-477): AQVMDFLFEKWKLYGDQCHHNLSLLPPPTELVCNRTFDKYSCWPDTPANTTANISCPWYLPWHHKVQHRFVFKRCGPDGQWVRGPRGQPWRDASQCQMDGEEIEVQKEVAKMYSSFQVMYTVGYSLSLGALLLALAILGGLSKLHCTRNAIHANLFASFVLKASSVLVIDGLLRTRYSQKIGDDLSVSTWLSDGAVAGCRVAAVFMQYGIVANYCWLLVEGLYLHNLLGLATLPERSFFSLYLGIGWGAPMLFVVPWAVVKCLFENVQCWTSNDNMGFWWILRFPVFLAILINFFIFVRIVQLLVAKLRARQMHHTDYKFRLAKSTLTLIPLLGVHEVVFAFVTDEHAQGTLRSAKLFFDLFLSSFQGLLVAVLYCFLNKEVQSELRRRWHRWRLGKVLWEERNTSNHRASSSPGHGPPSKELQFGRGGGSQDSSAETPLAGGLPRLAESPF
T1 sequence (P43220 24-463): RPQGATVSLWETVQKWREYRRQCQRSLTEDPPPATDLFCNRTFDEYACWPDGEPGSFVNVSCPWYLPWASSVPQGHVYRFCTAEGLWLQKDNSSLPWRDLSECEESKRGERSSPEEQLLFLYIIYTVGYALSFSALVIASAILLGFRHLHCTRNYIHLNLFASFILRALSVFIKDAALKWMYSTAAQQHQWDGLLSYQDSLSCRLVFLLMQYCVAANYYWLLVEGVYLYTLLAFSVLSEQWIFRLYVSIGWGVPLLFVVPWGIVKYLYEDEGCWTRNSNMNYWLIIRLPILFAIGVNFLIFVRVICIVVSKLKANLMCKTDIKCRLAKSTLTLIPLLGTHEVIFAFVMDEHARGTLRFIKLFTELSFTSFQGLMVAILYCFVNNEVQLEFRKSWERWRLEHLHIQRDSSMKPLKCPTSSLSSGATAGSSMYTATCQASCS

Compound: H-HSQGTFTSDYSKYLDSRAAQDFVWLMNT-NH2 [Compound 246]
- EC50 (human GLP-1R): 0.3 nM
- EC50 (human glucagon receptor): 0.05 nM

Compound: H-HSQGTFTSDYSKYLDSRYAQDFVWLMNT-NH2 [Compound 247]
- EC50 (human GLP-1R): 0.3 nM
- EC50 (human glucagon receptor): 0.1 nM

Compound: H-HSQGTFTSDYSRYLDERRAQDFVWLMNT-NH2 [Compound 258]
- EC50 (human glucagon receptor): 0.06 nM

Compound: CCCCCCCCCCCCCCCC(=O)N[C@@H](CCC(=O)NCCCC[C@H](NC(=O)[C@H](CCC(=O)O)NC(=O)[C@H](CC(=O)O)NC(=O)[C@H](CC(C)C)NC(=O)[C@H](Cc1ccc(O)cc1)NC(=O)[C@H](CCCCN)NC(=O)[C@H](CO)NC(=O)[C@H](Cc1ccc(O)cc1)NC(=O)[C@H](CC(=O)O)NC(=O)[C@H](CO)NC(=O)[C@@H](NC(=O)[C@H](Cc1ccccc1)NC(=O)[C@@H](NC(=O)CNC(=O)[C@H](CCC(N)=O)NC(=O)C(C)(C)NC(=O)[C@@H](N)Cc1c[nH]cn1)[C@@H](C)O)[C@@H](C)O)C(=O)N[C@@H](CCCNC(=N)N)C(=O)N[C@@H](C)C(=O)N[C@@H](CCCCN)C(=O)N[C@@H](CC(=O)O)C(=O)N[C@@H](Cc1ccccc1)C(=O)N[C@H](C(=O)N[C@@H](CCC(=O)O)C(=O)N[C@@H](Cc1c[nH]c2ccccc12)C(=O)N[C@@H](CC(C)C)C(=O)N[C@@H](CC(C)C)C(=O)N[C@@H](CO)C(=O)N[C@@H](C)C(N)=O)[C@@H](C)CC)C(=O)O [Compound 263] (H-H[Aib]QGTFTSDYSKYLDEK([γGlu-Palmitoyl])RAKDFIEWLLSA-NH2)
- EC50 (human GLP-1R): 0.1 nM
- EC50 (human glucagon receptor): 0.16 nM

Compound: CCCCCCCCCCCCCCCC(=O)N[C@@H](CCC(=O)NCCCC[C@H](NC(=O)[C@H](CC(C)C)NC(=O)[C@H](CC(C)C)NC(=O)[C@H](Cc1c[nH]c2ccccc12)NC(=O)[C@H](CCC(=O)O)NC(=O)[C@@H](NC(=O)[C@H](Cc1ccccc1)NC(=O)[C@H](CC(=O)O)NC(=O)[C@H](Cc1c[nH]cn1)NC(=O)[C@H](C)NC(=O)[C@H](C)NC(=O)[C@H](CCCCN)NC(=O)[C@H](CO)NC(=O)[C@H](CC(=O)O)NC(=O)[C@H](CC(C)C)NC(=O)[C@H](Cc1ccc(O)cc1)NC(=O)[C@H](CCCCN)NC(=O)[C@H](CO)NC(=O)[C@H](Cc1ccc(O)cc1)NC(=O)[C@H](CC(=O)O)NC(=O)[C@H](CO)NC(=O)[C@@H](NC(=O)[C@H](Cc1ccccc1)NC(=O)[C@@H](NC(=O)CNC(=O)[C@H](CCC(N)=O)NC(=O)[C@H](CO)NC(=O)[C@@H](N)Cc1c[nH]cn1)[C@@H](C)O)[C@@H](C)O)C(C)C)C(=O)N[C@@H](C)C(N)=O)C(=O)O [Compound 205] (H-HSQGTFTSDYSKYLDSKAAHDFVEWLLK([γGlu-Palmitoyl])A-NH2)
- EC50 (human GLP-1R): 0.09 nM
- EC50 (human glucagon receptor): 0.1 nM

Compound: CCCCCCCCCCCCCCCC(=O)N[C@@H](CCC(=O)NCCCC[C@H](NC(=O)[C@H](CO)NC(=O)[C@H](CC(=O)O)NC(=O)[C@H](CC(C)C)NC(=O)[C@H](Cc1ccc(O)cc1)NC(=O)[C@H](CCCCN)NC(=O)[C@H](CO)NC(=O)[C@H](Cc1ccc(O)cc1)NC(=O)[C@H](CC(=O)O)NC(=O)[C@H](CO)NC(=O)[C@@H](NC(=O)[C@H](Cc1ccccc1)NC(=O)[C@@H](NC(=O)CNC(=O)[C@H](CCC(N)=O)NC(=O)C(C)(C)NC(=O)[C@@H](N)Cc1c[nH]cn1)[C@@H](C)O)[C@@H](C)O)C(=O)N[C@@H](C)C(=O)N[C@@H](C)C(=O)N[C@@H](Cc1c[nH]cn1)C(=O)N[C@@H](CC(=O)O)C(=O)N[C@@H](Cc1ccccc1)C(=O)N[C@H](C(=O)N[C@@H](CCC(=O)O)C(=O)N[C@@H](Cc1c[nH]c2ccccc12)C(=O)N[C@@H](CC(C)C)C(=O)N[C@@H](CC(C)C)C(=O)N[C@@H](CO)C(=O)N[C@@H](C)C(N)=O)C(C)C)C(=O)O [Compound 208]
- EC50 (human GLP-1R): 0.11 nM
- EC50 (human glucagon receptor): 0.16 nM

Compound: H-HSQGTFTSDYSKYLDKRRAEDFVWLMNT-NH2 [Compound 256]
- EC50 (human GLP-1R): 0.2 nM
- EC50 (human glucagon receptor): 0.07 nM

Compound: H-HSQGTFTSDYSKYLDSKAAQDFVWLMNT-NH2 [Compound 260]
- EC50 (human glucagon receptor): 0.07 nM

Compound: CC(C)C[C@@H]1NC(=O)[C@H](CC(C)C)NC(=O)[C@H](Cc2c[nH]c3ccccc23)NC(=O)[C@@H](NC(=O)[C@@H](NC(=O)[C@H](Cc2ccccc2)NC(=O)[C@H](CC(=O)O)NC(=O)[C@H](Cc2c[nH]cn2)NC(=O)[C@H](C)NC(=O)[C@H](C)NC(=O)[C@H](CCCCN)NC(=O)[C@H](CO)NC(=O)[C@H](CC(=O)O)NC(=O)[C@H](CC(C)C)NC(=O)[C@H](Cc2ccc(O)cc2)NC(=O)[C@H](CCCCN)NC(=O)[C@H](CO)NC(=O)[C@H](Cc2ccc(O)cc2)NC(=O)[C@H](CC(=O)O)NC(=O)[C@H](CO)NC(=O)[C@@H](NC(=O)[C@H](Cc2ccccc2)NC(=O)[C@@H](NC(=O)CNC(=O)[C@H](CCC(N)=O)NC(=O)[C@H](CO)NC(=O)[C@@H](N)Cc2c[nH]cn2)[C@@H](C)O)[C@@H](C)O)C(C)C)CCC(=O)NCCCC[C@@H](C(=O)N[C@@H](C)C(N)=O)NC1=O [Compound 261] (H-HSQGTFTSDYSKYLDSKAAHDFVEWLLKA-NH2; lactam 24-28)
- EC50 (human GLP-1R): 0.03 nM
- EC50 (human glucagon receptor): 0.07 nM

Compound: H-HSQGTFTSDYSRYLDSRRAQDFVWLLNK-NH2 [Compound 254]
- EC50 (human GLP-1R): 0.2 nM
- EC50 (human glucagon receptor): 0.2 nM

Compound: H-HSQGTFTSDYSKYLDSRSAQDFVWLMNT-NH2 [Compound 245]
- EC50 (human GLP-1R): 0.1 nM
- EC50 (human glucagon receptor): 0.05 nM

Compound: H-HSQGTFTSDYSKYLDSKAAHDFVEWLLRA-NH2 [Compound 48]
- EC50 (human glucagon receptor): 0.06 nM

Compound: H-HSQGTFTSDYSRYLDSRRAQDFVWLLNT-NH2 [Compound 253]
- EC50 (human GLP-1R): 0.2 nM
- EC50 (human glucagon receptor): 0.1 nM

Compound: CC(C)C[C@H](NC(=O)[C@H](Cc1ccc(O)cc1)NC(=O)[C@H](CCCCN)NC(=O)[C@H](CO)NC(=O)[C@H](Cc1ccc(O)cc1)NC(=O)[C@H](CC(=O)O)NC(=O)[C@H](CO)NC(=O)[C@@H](NC(=O)[C@H](Cc1ccccc1)NC(=O)[C@@H](NC(=O)CNC(=O)[C@H](CCC(N)=O)NC(=O)[C@H](CO)NC(=O)[C@@H](N)Cc1c[nH]cn1)[C@@H](C)O)[C@@H](C)O)C(=O)N[C@@H](CC(=O)O)C(=O)N[C@@H](CO)C(=O)N[C@@H](CCCNC(=N)N)C(=O)N[C@@H](CCCNC(=N)N)C(=O)N[C@@H](C)C(=O)N[C@@H](CCC(N)=O)C(=O)N[C@@H](CC(=O)O)C(=O)N[C@@H](Cc1ccccc1)C(=O)N[C@H](C(=O)N[C@@H](Cc1c[nH]c2ccccc12)C(=O)N[C@@H](CC(C)C)C(=O)N[C@@H](CCCCN)C(=O)N[C@@H](CO)C(=O)N[C@@H](C)C(N)=O)C(C)C [Compound 249]
- EC50 (human GLP-1R): 0.1 nM
- EC50 (human glucagon receptor): 0.1 nM

Compound: CC(C)C[C@H](NC(=O)[C@H](CC(C)C)NC(=O)[C@H](Cc1c[nH]c2ccccc12)NC(=O)[C@H](CCC(=O)O)NC(=O)[C@@H](NC(=O)[C@H](Cc1ccccc1)NC(=O)[C@H](CC(=O)O)NC(=O)[C@H](Cc1c[nH]cn1)NC(=O)[C@H](C)NC(=O)[C@H](C)NC(=O)[C@H](CCCCN)NC(=O)[C@H](CO)NC(=O)[C@H](CC(=O)O)NC(=O)[C@H](CC(C)C)NC(=O)[C@H](Cc1ccc(O)cc1)NC(=O)[C@H](CCCCN)NC(=O)[C@H](CO)NC(=O)[C@H](Cc1ccc(O)cc1)NC(=O)[C@H](CC(=O)O)NC(=O)[C@H](CO)NC(=O)[C@@H](NC(=O)[C@H](Cc1ccccc1)NC(=O)[C@@H](NC(=O)CNC(=O)[C@H](CCC(N)=O)NC(=O)C(C)(C)NC(=O)[C@@H](N)Cc1c[nH]cn1)[C@@H](C)O)[C@@H](C)O)C(C)C)C(=O)N[C@@H](CCCNC(=N)N)C(=O)N[C@@H](C)C(N)=O [Compound 45] (H-H[Aib]QGTFTSDYSKYLDSKAAHDFVEWLLRA-NH2)
- EC50 (human GLP-1R): 0.08 nM
- EC50 (human glucagon receptor): 0.06 nM

Compound: H-HSQGTFTSDYSKYLDSALAQDFVWLLNT-NH2 [Compound 255]
- EC50 (human GLP-1R): 0.24 nM
- EC50 (human glucagon receptor): 0.1 nM
